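Five concentrations, 48 hours, 96-well plates. GI50 = concentration required for 50% inhibition of growth. At the TGI there is no net growth.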
Key:
Assay in all cases: DTP human tumour cell line panel, 48 h
SK-MEL-5 melanoma = tested on: SK-MEL-5 melanoma
UACC-257 melanoma = tested on: UACC-257 melanoma
KM12 colon = tested on: KM12 colon
EKVX NSCLC = tested on: EKVX NSCLC
LOX IMVI melanoma = tested on: LOX IMVI melanoma
A498 renal = tested on: A498 renal
SNB-75 CNS = tested on: SNB-75 CNS
SW-620 colon = tested on: SW-620 colon
NCI/ADR-RES ovarian = tested on: NCI/ADR-RES ovarian
PC-3 prostate = tested on: PC-3 prostate
HS 578T breast = tested on: HS 578T breast
OVCAR-5 ovarian = tested on: OVCAR-5 ovarian
HCT-116 colon = tested on: HCT-116 colon
HOP-62 NSCLC = tested on: HOP-62 NSCLC
COLO 205 colon = tested on: COLO 205 colon
HOP-92 NSCLC = tested on: HOP-92 NSCLC
HT29 colon = tested on: HT29 colon
SN12C renal = tested on: SN12C renal
NCI-H23 lung = tested on: NCI-H23 lung
IGROV1 ovarian = tested on: IGROV1 ovarian
CAKI-1 renal = tested on: CAKI-1 renal
HCT-15 colon = tested on: HCT-15 colon
SR leukemia = tested on: SR leukemia
UO-31 renal = tested on: UO-31 renal
SK-OV-3 ovarian = tested on: SK-OV-3 ovarian
A549 NSCLC = tested on: A549 NSCLC
OVCAR-8 ovarian = tested on: OVCAR-8 ovarian
MDA-MB-231 breast = tested on: MDA-MB-231 breast
CCRF-CEM leukemia = tested on: CCRF-CEM leukemia
NCI-H522 lung = tested on: NCI-H522 lung
TK-10 renal = tested on: TK-10 renal
786-0 renal = tested on: 786-0 renal
MOLT-4 leukemia = tested on: MOLT-4 leukemia
M14 melanoma = tested on: M14 melanoma
HCC-2998 colon = tested on: HCC-2998 colon
UACC-62 melanoma = tested on: UACC-62 melanoma
SF-295 CNS = tested on: SF-295 CNS
ACHN renal = tested on: ACHN renal
HL-60(TB) leukemia = tested on: HL-60(TB) leukemia
RXF 393 renal = tested on: RXF 393 renal
DU-145 prostate = tested on: DU-145 prostate
BT-549 breast = tested on: BT-549 breast
SF-539 CNS = tested on: SF-539 CNS
OVCAR-3 ovarian = tested on: OVCAR-3 ovarian
RPMI-8226 leukemia = tested on: RPMI-8226 leukemia
OVCAR-4 ovarian = tested on: OVCAR-4 ovarian
SK-MEL-28 melanoma = tested on: SK-MEL-28 melanoma
NCI-H460 lung = tested on: NCI-H460 lung
U251 CNS = tested on: U251 CNS
T-47D breast = tested on: T-47D breast
SNB-19 CNS = tested on: SNB-19 CNS
MDA-MB-435 = tested on: MDA-MB-435
NCI-H226 lung = tested on: NCI-H226 lung
K-562 leukemia = tested on: K-562 leukemia
MALME-3M melanoma = tested on: MALME-3M melanoma
SK-MEL-2 melanoma = tested on: SK-MEL-2 melanoma
MCF7 breast = tested on: MCF7 breast

CCc1c2c(nc3ccc(OCc4ccc(B(O)O)cc4)cc13)-c1cc3c(c(=O)n1C2)COC(=O)[C@]3(O)CC
GI50 (SK-MEL-5 melanoma): 0.0244 µM
TGI (SK-MEL-5 melanoma): 0.173 µM
GI50 (UACC-257 melanoma): 0.0943 µM
TGI (UACC-257 melanoma): 2.06 µM
GI50 (KM12 colon): 0.15 µM
TGI (KM12 colon): > 51.9 µM
GI50 (EKVX NSCLC): 0.614 µM
TGI (EKVX NSCLC): > 64 µM
GI50 (LOX IMVI melanoma): < 0.01 µM
TGI (LOX IMVI melanoma): 0.15 µM
GI50 (A498 renal): 0.0128 µM
TGI (A498 renal): 0.21 µM
GI50 (SNB-75 CNS): < 0.0167 µM
TGI (SNB-75 CNS): 0.321 µM
GI50 (SW-620 colon): 0.0247 µM
TGI (SW-620 colon): > 78 µM
GI50 (NCI/ADR-RES ovarian): 0.0766 µM
GI50 (PC-3 prostate): 0.164 µM
TGI (PC-3 prostate): > 75.5 µM
GI50 (HS 578T breast): 0.752 µM
TGI (HS 578T breast): > 100 µM
GI50 (OVCAR-5 ovarian): 0.253 µM
GI50 (HCT-116 colon): 0.0118 µM
TGI (HCT-116 colon): 17.8 µM
GI50 (HOP-62 NSCLC): < 0.01 µM
GI50 (COLO 205 colon): 0.0855 µM
TGI (COLO 205 colon): 8.46 µM
GI50 (HOP-92 NSCLC): 0.0366 µM
TGI (HOP-92 NSCLC): 4.36 µM
GI50 (HT29 colon): 0.286 µM
TGI (HT29 colon): > 37.7 µM
GI50 (SN12C renal): < 0.013 µM
TGI (SN12C renal): > 100 µM
GI50 (NCI-H23 lung): < 0.01 µM
TGI (NCI-H23 lung): 0.304 µM
GI50 (IGROV1 ovarian): 0.161 µM
TGI (IGROV1 ovarian): > 33.7 µM
GI50 (CAKI-1 renal): < 0.0143 µM
TGI (CAKI-1 renal): 0.361 µM
GI50 (HCT-15 colon): 0.353 µM
TGI (HCT-15 colon): > 43 µM
GI50 (SR leukemia): < 0.01 µM
TGI (SR leukemia): > 100 µM
GI50 (UO-31 renal): 0.031 µM
TGI (UO-31 renal): 0.913 µM
GI50 (SK-OV-3 ovarian): < 0.01 µM
TGI (SK-OV-3 ovarian): 0.347 µM
GI50 (A549 NSCLC): 0.0681 µM
TGI (A549 NSCLC): > 32.3 µM
GI50 (OVCAR-8 ovarian): 0.0195 µM
TGI (OVCAR-8 ovarian): > 32.1 µM
GI50 (MDA-MB-231 breast): 1.37 µM
TGI (MDA-MB-231 breast): > 89.5 µM
GI50 (CCRF-CEM leukemia): < 0.01 µM
TGI (CCRF-CEM leukemia): > 100 µM
GI50 (NCI-H522 lung): < 0.0183 µM
GI50 (TK-10 renal): 0.226 µM
GI50 (786-0 renal): < 0.0174 µM
TGI (786-0 renal): 1.8 µM
GI50 (MOLT-4 leukemia): 0.0101 µM
TGI (MOLT-4 leukemia): > 100 µM
GI50 (M14 melanoma): < 0.0156 µM
TGI (M14 melanoma): 1.66 µM
GI50 (HCC-2998 colon): 0.398 µM
TGI (HCC-2998 colon): > 66.1 µM
GI50 (UACC-62 melanoma): < 0.01 µM
TGI (UACC-62 melanoma): 0.155 µM
GI50 (SF-295 CNS): < 0.01 µM
TGI (SF-295 CNS): 7.53 µM
GI50 (ACHN renal): < 0.0179 µM
TGI (ACHN renal): 0.589 µM
GI50 (HL-60(TB) leukemia): 0.0353 µM
TGI (HL-60(TB) leukemia): > 100 µM
GI50 (RXF 393 renal): 0.0232 µM
TGI (RXF 393 renal): 0.142 µM
GI50 (DU-145 prostate): < 0.0158 µM
TGI (DU-145 prostate): 6.05 µM
GI50 (BT-549 breast): 0.0432 µM
TGI (BT-549 breast): > 26.5 µM
GI50 (SF-539 CNS): < 0.0117 µM
TGI (SF-539 CNS): 0.155 µM
GI50 (OVCAR-3 ovarian): 0.172 µM
TGI (OVCAR-3 ovarian): 4.46 µM
GI50 (RPMI-8226 leukemia): 0.184 µM
TGI (RPMI-8226 leukemia): > 100 µM
GI50 (OVCAR-4 ovarian): 0.399 µM
TGI (OVCAR-4 ovarian): 29.7 µM
GI50 (SK-MEL-28 melanoma): 0.477 µM
TGI (SK-MEL-28 melanoma): > 100 µM
GI50 (NCI-H460 lung): < 0.0134 µM
TGI (NCI-H460 lung): 1.39 µM
GI50 (U251 CNS): < 0.01 µM
GI50 (T-47D breast): < 0.01 µM
TGI (T-47D breast): > 21.1 µM
GI50 (SNB-19 CNS): < 0.01 µM
TGI (SNB-19 CNS): > 39.6 µM
GI50 (MDA-MB-435): 0.076 µM
TGI (MDA-MB-435): 3.5 µM
GI50 (NCI-H226 lung): 0.0187 µM
TGI (NCI-H226 lung): 0.339 µM
GI50 (K-562 leukemia): 0.0792 µM
TGI (K-562 leukemia): > 100 µM
GI50 (MALME-3M melanoma): 0.0576 µM
TGI (MALME-3M melanoma): 1.59 µM
GI50 (SK-MEL-2 melanoma): 0.63 µM
GI50 (MCF7 breast): < 0.01 µM
